The nature of series [1]: Toxicity in human K562/Dox cells assessed as reduction in cell viability at 0.1 to 3 uM incubated for 72 hrs by MTT assay. It is filed as cell-based. Background: Tetrazolium assays rely on reduction of a dye to a coloured formazan, in cell work by metabolically active cells.
For series [2], the species on record is Homo sapiens. Briefly: Inhibition of P-gp in human K562/DOX cells assessed as potentiation of doxorubicin-induced cytotoxicity by measuring reduction in doxorubicin IC50 at 1 uM incubated for 72 hrs by MTT assay relative to control. The format is cell-based.
The nature of series [3]: Stability in presence of bovine serum and human K562/DOX cells assessed as drug degradation incubated for 30 to 120 mins by LC-MS/MS method. The following applies: K562/DOX cells with bovine serum, read-out: Drug degradation. It is filed as ADME.
The species named for series [4] is Homo sapiens. Briefly: Inhibition of P-gp in human K562/DOX cells assessed as potentiation of doxorubicin-induced cytotoxicity by measuring reduction in doxorubicin IC50 at 3 uM incubated for 72 hrs by MTT assay relative to control. The format is cell-based.
A short description of series [5]: Half life in human plasma by LC-MS/MS method. The format is ADME, cell-free.
The species named for series [6] is Homo sapiens.
Description: Inhibition of P-gp in human K562/DOX cells assessed as drug level causing 50% increase in nuclear pirarubicin concentration incubated for 30 mins by spectroflurometry
Series [7] has as its system K562. Description: Effect on rhodamine-123 efflux in human K562 cells at 1 uM incubated for 10 mins hrs by flow cytometry. It is filed as ADME, cell-based. To be noted: k562, 10 min. For orientation: In flow cytometry, cells or beads pass a laser one at a time.
For series [8], the species on record is Homo sapiens. Briefly: Inhibition of P-gp in human K562/DOX cells assessed as potentiation of doxorubicin-induced cytotoxicity by measuring reduction in doxorubicin IC50 at 0.1 uM incubated for 72 hrs by MTT assay relative to control. It is filed as cell-based.
The test system of series [9] is K562. Briefly: Toxicity in human K562 cells assessed as reduction in cell viability at 0.1 to 3 uM incubated for 72 hrs by MTT assay. To be noted: k562, 72 h. It is filed as cell-based.
The test system of series [10] is K562. Briefly: Inhibition of P-gp in human K562/DOX cells assessed as increase in rhodamine-123 […] in human K562 cells at 1 uM incubated for 10 mins hrs by flow cytometry relative to untreated control. The format is cell-based.
The test system of series [11] is K562. Briefly: Potentiation of doxorubicin-induced cytotoxicity in human K562 cells assessed as reduction in cell viability at 0.1 to 3 uM incubated for 72 hrs by MTT assay. It is filed as cell-based. The following applies: k562, 72 h.
The nature of series [12]: Stability in PBS buffer assessed as drug degradation incubated for 30 to 120 mins by LC-MS/MS method. The format is physicochemical. The following applies: read-out: Drug degradation.
Series [13] in a line: Stability in human plasma assessed as parent compound remaining incubated for 120 mins by LC-MS/MS method. It is filed as ADME, cell-free. The following applies: read-out: Stability.

Activity calls are given as the source filed them. No cut-off for these calls is given here.

`COc1cc(/C=C/C(=O)O[C@H]2CC[C@H](N(C)CCCCCOC(=O)c3cc(OC)c(OC)c(OC)c3)CC2)cc(OC)c1OC`: the Activity result (in [1]; in the series on K562 [7]; in the series with K562 [9]; in the series with K562 [11]) was “Non-Toxic” each time. The figures for the Ratio IC50 in the series filed under Homo sapiens [2], in the series filed under Homo sapiens [4] and in the series filed under Homo sapiens [8] were 32.8, 57.9 and 2.3, respectively. Also, the metabolised in series [3] is < 5%. Also, the half-life (usually the time in which the quantity being followed falls by half) in [5] is ≥ 240 min. Besides, the I0.5 in the series listed under Homo sapiens [6] amounted to 0.13 µM. The fold change (FC) in the series on K562 [10] stood at 80. In addition, in [12], the degraded was < 5%.

For the compound `COc1cc(/C=C/C(=O)OCCCCCN(C)[C@H]2CC[C@H](OC(=O)c3cc(OC)c(OC)c(OC)c3)CC2)cc(OC)c1OC`, the metabolised in [3] was < 5%. The half-life in [5] is ≥ 240 min. The compound further displayed an I0.5 in the series filed under Homo sapiens [6] of 0.1 µM. Besides, the degraded in [12] is < 5%.

Consider `COc1cc2c(cc1OC)CN(CCc1ccc(NC(=O)c3cc(OC)c(OC)cc3NC(=O)c3cnc4ccccc4c3)cc1)CC2`, for which the Ratio IC50 in the series filed under Homo sapiens [2] is 29.7. Also, in the series on K562 [10], the inhibition entry is “Active”.

As to `COc1cc(/C=C/C(=O)OCCCCN(C)[C@H]2CC[C@H](OC(=O)c3cc(OC)c(OC)c(OC)c3)CC2)cc(OC)c1OC`, the metabolised in [3] is < 5%. This compound also displayed a half-life in [5] of 120 to 240 min. In the series filed under Homo sapiens [6], this compound yielded an I0.5 of 0.08 µM. Besides, the remaining at 2 h in series [13] is 50%. Moreover, the degraded in series [12] was < 5%.

As for `COc1cc(/C=C/C(=O)O[C@H]2CC[C@H](N(C)CCCCOC(=O)c3cc(OC)c(OC)c(OC)c3)CC2)cc(OC)c1OC`, the Activity entry (in series [1]; in the series with K562 [7]; in the series with K562 [9]; in the series with K562 [11]) was “Non-Toxic” in each case. In addition, the Ratio IC50 worked out at 12.9 in the series filed under Homo sapiens [2], 50 in the series filed under Homo sapiens [4] and 3.3 in the series listed under Homo sapiens [8]. For the same compound, the metabolised in series [3] was < 5%. Also, the half-life in series [5] was ≤ 120 min. Moreover, in the series filed under Homo sapiens [6], the I0.5 was 0.06 µM. For the same compound, in the series with K562 [10], the fold change (FC) came out at 60. The degraded in series [12] was < 5%.

With `COc1cc(/C=C/C(=O)O[C@H]2CC[C@@H](N(C)CCCOC(=O)c3cc(OC)c(OC)c(OC)c3)CC2)cc(OC)c1OC`, the metabolised in [3] is < 5%. For the same compound, the half-life in series [5] is ≥ 240 min. This compound returned an I0.5 in the series filed under Homo sapiens [6] of 0.47 µM. Also, in series [12], the degraded is < 5%.

On to `COc1cc(/C=C/C(=O)O[C@H]2CC[C@@H](N(C)CCCCOC(=O)c3cc(OC)c(OC)c(OC)c3)CC2)cc(OC)c1OC`, for which the Activity result (in series [1]; in the series on K562 [7]; in the series on K562 [9]; in the series with K562 [11]) was “Non-Toxic” in each case. The Ratio IC50 was determined as 4.6 in the series filed under Homo sapiens [2], 34.9 in the series listed under Homo sapiens [4] and 2.8 in the series filed under Homo sapiens [8]. The metabolised in series [3] was < 5%. The half-life in series [5] is ≥ 240 min. The I0.5 in the series filed under Homo sapiens [6] was 0.29 µM. The fold change (FC) with K562 [10] is 10 to 80. Moreover, the degraded in [12] is < 5%.

For the compound `COc1cc(/C=C/C(=O)O[C@H]2CC[C@@H](N(C)CCCCCOC(=O)c3cc(OC)c(OC)c(OC)c3)CC2)cc(OC)c1OC`, the Activity entry (in series [1]; with K562 [7]; in the series on K562 [9]; in the series with K562 [11]) was “Non-Toxic” each time. Further, the values for the Ratio IC50 in the series filed under Homo sapiens [2], in the series filed under Homo sapiens [4] and in the series filed under Homo sapiens [8] were 5.5, 14.7 and 1.6, respectively. Further, in series [3], the metabolised was < 5%. The half-life in series [5] is ≥ 240 min. In the series listed under Homo sapiens [6], this compound yielded an I0.5 of 0.09 µM. In addition, in the series with K562 [10], the fold change (FC) was 10 to 80. For the same compound, the degraded in series [12] was < 5%.

On to `COc1cc(/C=C/C(=O)OCCCCN(C)[C@H]2CC[C@@H](OC(=O)c3cc(OC)c(OC)c(OC)c3)CC2)cc(OC)c1OC`, for which the metabolised in [3] is < 5%. In series [5], the half-life is ≥ 240 min. Also, the I0.5 in the series filed under Homo sapiens [6] stood at 0.35 µM. Besides, the degraded in series [12] was < 5%.

For the compound `COc1cc(/C=C/C(=O)O[C@H]2CC[C@H](N(C)CCCOC(=O)c3cc(OC)c(OC)c(OC)c3)CC2)cc(OC)c1OC`, the metabolised in [3] is < 5%. In addition, the half-life in series [5] was ≤ 60 min. The I0.5 in the series filed under Homo sapiens [6] came to 0.07 µM. The degraded in [12] is < 5%.

For the compound `COc1cc(/C=C/C(=O)OCCCN(C)[C@H]2CC[C@H](OC(=O)c3cc(OC)c(OC)c(OC)c3)CC2)cc(OC)c1OC`, the metabolised in [3] is < 5%. Besides, in series [5], the half-life was ≤ 120 min. In the series filed under Homo sapiens [6], this compound returned an I0.5 of 0.08 µM. Further, in series [12], the degraded was < 5%.

Turning to `CCOC(=O)C(C)c1cccc(C(=O)c2ccccc2)c1` (stereo not given), the half-life in [5] was < 120 min.

`COc1cc(/C=C/C(=O)OCCCCCN(C)[C@H]2CC[C@@H](OC(=O)c3cc(OC)c(OC)c(OC)c3)CC2)cc(OC)c1OC`: the metabolised in series [3] was < 5%. Also, in series [5], the half-life is ≥ 240 min. The compound further showed an I0.5 in the series listed under Homo sapiens [6] of 0.51 µM. Also, in series [12], the degraded was < 5%.

For `COc1cc(/C=C/C(=O)OCCCN(C)[C@H]2CC[C@@H](OC(=O)c3cc(OC)c(OC)c(OC)c3)CC2)cc(OC)c1OC`, the metabolised in [3] is < 5%. This compound registered a half-life in series [5] of 120 to 240 min. The compound also came in with an I0.5 in the series listed under Homo sapiens [6] of 0.25 µM. The remaining at 2 h in series [13] was found to be 75%. In [12], the degraded was < 5%.

For the origin of these results see ChEMBL document CHEMBL4265868, “N-alkanol-N-cyclohexanol amine aryl esters: Multidrug resistance (MDR) reversing agents with high potency and efficacy” (Eur J Med Chem, 2017).
